This is an account of results in patent US5354691A, “Polypeptides and derivatives thereof as well as their use in pharmaceutical and diagnostic compositions” (priority 1987, dated 1994).

The subject of assay [1] is T-cell clones A2b and A2c. Description: Stimulating activity on T-cell clones A2b and A2c, stated for both clones together. The class given is cell-based, rat.
Assay [2] has as its system T-cell clone A2b. Description: T-cell clone proliferation (3H-thymidine uptake, stimulation index), clone A2b. The settings on record: polypeptide with sequence homologous to antigen A 180-188. The class given is cell-based, rat.
The subject of assay [3] is T-cell clones A2b and A2c. The settings on record: from European patent application 0 262 710 / EP-A-0 181 364; cited from earlier work.

Take RARLQLELS [lamin A and C]: the “response of the T-cell clones A2b and A2c” value in assay [1] was “react positively”.
“TFGLQPQDT [antigen from Epstein-Barr virus]”: in assay [2], the “response of T-cell clone A2b” value is “responds”.
Regarding “proteoglycan protein of cartilage: proteoglycan protein of cartilage (J.Biol.Chem. 261, 3519-3535)”, in assay [3], the “recognition by / response of T-cell clones A2b and A2c” value is listed as “recognized”.
